Patent US20130078298A1, “GASEOUS NITRIC OXIDE-SEQUESTERING PRODUCTS AND PROCESSES OF PREPARING SAME” (Enox Biopharma, Inc, priority 2010, published 2013)

Tests used:
Bacterial vaginosis (BV) = conditions: following metronidazole treatment of BV; cited from earlier work
Pseudomonas aeruginosa = conditions: multiple 30 minute treatments of 160 ppm nitric oxide; cited from earlier work
E. coli [1] = assay: Biofilm sterilization by gaseous NO; format: cell-based, Escherichia coli; conditions: 20,000 ppm NO, 1 liter/minute, 5, 10, 30, 60 or 120 minutes
Procedure: (§1) A biofilm was established in each well of a 6-well plate and the time of treatment with nitric oxide gas for eradication of the biofilm was tested using the biofilm formation assay described hereinabove.
(§2) Briefly, 3 ml of LB media were placed in each well of 12 6-well plates and then each well was inoculated with 10 μl of stock bacteria (E. Coli or A. baumanii (6 plates for each bacterial type). Plates were incubated with agitation for 5 days at 37° C. to establish a biofilm in each well. The media was removed and each well washed twice with sterile saline.
(§3) Plates with established biofilms (one for each bacterial type) were treated with nitric oxide (20,000 ppm, 1 liter/minute flow rate) for 5, 10, 30, 60 or 120 minutes. Control plates were kept at room temperature, without treatment.
(§4) Three of the six wells for each plate were stained with crystal violet to confirm biofilm formation. The biofilm in the remaining 3 wells of each plate was re-suspended (with 30 seconds sonication) in 5 ml sterile saline. Aliquots of 1, 10 and 100 μl of each sample were plated in compartmentalized (3-section) petri plates.

Staphylococcus aureus = conditions: multiple 30 minute treatments of 160 ppm nitric oxide; cited from earlier work
E. coli [2] = assay: Sterilization of E. coli-inoculated catheter sections by nitric oxide dosing (CFU count); format: cell-based, Escherichia coli; conditions: 20,000 ppm NO, 30 cc/minutes
Procedure: Six-mm diameter Folysil® silicone Foley catheters, (catalog no. AA6118; Coloplast® Corp. Minneapolis, Minn., USA) (Folysil® and Coloplast® are registered trademarks of Coloplast A/S, Humlebaek, Denmark) were aseptically cut into 2-cm sections and inoculated by immersion in 2 ml of one of 10^3 CFU/ml, 10^5CFU/ml, or 10^8 CFU/ml E. coli. inocula for 30 minutes. Inoculated catheter sections were subsequently dosed with 20,000 parts per million of nitric oxide (at a flow rate of 30 cc/minutes) during 1, 5, 15, 30, 60 or 120 minutes, using the general procedure I described hereinabove. Control catheter sections were not impregnated with nitric oxide, but were stored in sterile sealed vials.
The nitric oxide-treated and untreated catheter segments were then immersed separately in 2 ml media and then incubated for 8 hours at 37° C. Aliquots of the incubation media were plated and numbers of CFU counted. Bacterial loads were calculated as CFU per ml.
Foley catheters, (catalog no. AA6118; Coloplast® Corp. Minneapolis, Minn., USA) is aseptically cut into 2-cm sections and inoculated by immersion in 2 ml of one of 10^3 CFU/ml, 10^5 CFU/ml, or 10^8 CFU/ml E. coli. inocula for 30 minutes. Inoculated catheter sections are subsequently dosed with nitric oxide using the general procedure II described hereinabove. Control catheter sections are not impregnated with nitric oxide, but are stored in sterile sealed vials.
The nitric oxide-treated and untreated catheter segments are then immersed separately in 2 ml media and incubated for 8 hours at 37° C. Aliquots of the incubation media are plated and numbers of CFU counted. Bacterial loads are calculated as CFU per ml.

E. coli [3] = conditions: multiple 30 minute treatments of 160 ppm nitric oxide; cited from earlier work
A. baumanii = assay: Biofilm sterilization by gaseous NO; format: cell-based, Acinetobacter baumanii; conditions: 20,000 ppm NO, 1 liter/minute, 5, 10, 30, 60 or 120 minutes
Procedure: as §1, §2, §3, §4

Compound | cure rate (Bacterial vaginosis (BV)) | decrease in the bacterial load (Pseudomonas aeruginosa) | colonies from re-suspended established biofilm (E. coli [1]) | decrease in the bacterial load (Staphylococcus aureus) | treatment time after which the catheter segments were sterilized (E. coli [2]; 10^3 bacterial stock) | treatment time after which the catheter segments were sterilized (E. coli [2]; 10^5 bacterial stock) | treatment time after which the catheter segments were sterilized (E. coli [2]; 10^8 bacterial stock) | decrease in the bacterial load (E. coli [3]) | colonies from re-suspended established biofilm (A. baumanii)
Cc1ncc([N+](=O)[O-])n1CCO [metronidazole] | 61% |  |  |  |  |  |  |  | 
[N]=O [nitric oxide] |  | > 5 log 10 colony forming unit per milliliter (CFU/ml) | no colonies were observed | > 5 log 10 colony forming unit per milliliter (CFU/ml) | 1 min | 15 min | 15 min | > 5 log 10 colony forming unit per milliliter (CFU/ml) | no colonies were observed
